Data on 1 compound can be found in patent US20100291010A1, “NOVEL ESTERS AND COMPOSITIONS AND USES THEREOF” (INNOSPEC LIMITED, priority 2007, published 2010).

On the series, the source says:
These two sunscreens are difficult to dissolve and keep in solution for use in sunscreen formulations for optimal SPF (Sun-Protection Factors). Higher solvency for a sunscreen ingredient is described as it allows higher concentrations of the sunscreen active ingredient in a formulation. […] The liquid organic sunscreens that are commonly used as octylsalicylate (OS) and octyl-methoxycinnamate (OMC).

The structures appear in SMILES notation.

With `COc1ccc(C(=O)c2ccccc2)c(O)c1` [Benzophenone-3, 2 hydroxy-4-methoxybenzophenone], the “Solubility in Finester LP (%)” value stood at 10% and the “Solubility in Finsolv TN (%)” value is listed as 15%.
